The text below walks through data of patent publication US20100278858A1, “PROCESS FOR PREPARING […] STRAINS” (priority 2007, published 2010).

Values after ≈ are worked out from the molar mass of the structure shown.

Holding throughout (experiment): method of reducing viral plates (plaque reduction)
In one assay the test system is HSV-1 TK^− B2006. In kind it is cell-based. As to conditions: for IC50: Human alphaherpesvirus 1; for Relative resistance (RR): IC50 of HSV-1 TK^− B2006 / IC50 of HSV-1 (F). Here is the method: (§1) According to the present invention, a method of reducing the viral plates comprises the following process: Vero cells monolayers developed in 24 wells microplates are infected with 50 UFP/well of virus in the absence or presence of different compounds concentrations. Each dilution is tested by duplicate. After 1 hour adsorption at 37° C., the inoculum is removed and covered by plating medium (culture media with methylcellulose at a final concentration of 0.7%). Inoculation is continued till the viral plates' appearance, which are then counted after fitting and dying the cells with violet crystal. Moreover, according to the present invention, 50% inhibitory concentration (IC50) means the compound concentration required for reducing about 50% the number of viral plates.
(§2) Thus, preliminary tests of the cloned variants of passages with greater selection pressure of 1C3 (17, 20 and 21) with pyrimidine and purine analogous as aciclovir (ACV) and brivudin (BVDU) would disclose alterations at viral TK level as it is shown in Table VIII, a characteristic that, up to date, has not been published in previous art documents. The TK gene is not essential for the in vitro viral replication, though in vivo, is involved in the virulence, pathogenicity and reactivation since latency (Andrei G et al., 2005). […] Therefore, the selection pressure to which the viruses were subjected could have selected mutations in the TK gene and in additional superimposing genes generating strains with less in vivo pathogenic action (Jacobson J et al., 1993).

The next assay deals with 1C3 syn 21-1. In kind it is cell-based, HSV-1. The note with it: for IC50: Human alphaherpesvirus 1, strain 1C3 syn 21-1, read-out: IC50; for Relative resistance (RR): IC50 of clone 1C3 syn 21-1 / IC50 of HSV-1 (F). Here is the method:
as §1, §2

The test system of the next assay is 1C3 syn 20-3. Type of assay: cell-based, HSV-1. The note with it: for IC50: Human alphaherpesvirus 1, strain 1C3 syn 20-3, read-out: IC50; for Relative resistance (RR): IC50 of clone 1C3 syn 20-3 / IC50 of HSV-1 (F). As to the method:
as §1, §2

For a further assay, the system named is 1C3 syn 21-2. In kind it is cell-based, HSV-1. The note with it: for IC50: Human alphaherpesvirus 1, strain 1C3 syn 21-2, read-out: IC50; for Relative resistance (RR): IC50 of clone 1C3 syn 21-2 / IC50 of HSV-1 (F). As to the method:
as §1, §2

A further assay concerns 1C3 syn 20-1. In kind it is cell-based, HSV-1. The note with it: for IC50: Human alphaherpesvirus 1, strain 1C3 syn 20-1, read-out: IC50; for Relative resistance (RR): IC50 of clone 1C3 syn 20-1 / IC50 of HSV-1 (F). Here is the method:
as §1, §2

The subject of a further assay is 1C3 syn 17-1. Type of assay: cell-based, HSV-1. The note with it: for IC50: Human alphaherpesvirus 1, strain 1C3 syn 17-1, read-out: IC50; for Relative resistance (RR): IC50 of clone 1C3 syn 17-1 / IC50 of HSV-1 (F). Here is the method:
as §1, §2

The next assay relates to 1C3 syn 17-3. Type of assay: cell-based, HSV-1. The note with it: for IC50: Human alphaherpesvirus 1, strain 1C3 syn 17-3, read-out: IC50; for Relative resistance (RR): IC50 of clone 1C3 syn 17-3 / IC50 of HSV-1 (F). As to the method:
as §1, §2

The test system of another assay is 1C3 syn 17-2. In kind it is cell-based, HSV-1. The note with it: for IC50: Human alphaherpesvirus 1, strain 1C3 syn 17-2, read-out: IC50; for Relative resistance (RR): IC50 of clone 1C3 syn 17-2 / IC50 of HSV-1 (F). As to the method: as §1, §2
The next assay deals with 1C3 syn 20-2. In kind it is cell-based, HSV-1. As to conditions: for IC50: Human alphaherpesvirus 1; for Relative resistance (RR): IC50 of clone 1C3 syn 20-2 / IC50 of HSV-1 (F). Here is the method: as §1, §2
Another assay concerns 1C3 syn 21-3. Type of assay: cell-based, HSV-1. As to conditions: for IC50: Human alphaherpesvirus 1, strain 1C3 syn 21-3, read-out: IC50; for Relative resistance (RR): IC50 of clone 1C3 syn 21-3 / IC50 of HSV-1 (F). Here is the method:
as §1, §2

A further assay deals with 1C3-syn-14-1. Type of assay: cell-based, HSV-1. The note with it: for IC50: Human alphaherpesvirus 1, strain 1C3 syn 14-1, read-out: IC50; for IC50 / Relative resistance (RR): Table VIII; for Relative resistance (RR): IC50 of clone 1C3 syn 14-1 / IC50 of HSV-1 (F); for susceptibility of variant to drug (in words): variant 1C3-syn-14-1. Here is the method: as §1
(§3) Compounds were present during the viral adsorption (1h, 37° C.) and after the infection. When a cytopathic action (ACP) between 80-90%, during a period among 24 to 72 hours p.i., was observed, cells were lysed with freeze-thawing cycles. In order to remove cellular moieties, the cellular lisate was centrifuged during 10 min at 1000 rpm, keeping the supernatant at −70° C. The supernatant was used to infect a new monolayer in the presence of SAMMA or PRO2000. […] The title and the IC50 of each viral passage was determined by viral plates reduction test (or after 2-3 passages) against SAMMA or PRO20000.

The next assay deals with HSV-1 (F). In kind it is cell-based. As to conditions: Human alphaherpesvirus 1; Table VIII; strain HSV-1 (F); read-out: IC50. Here is the method: as §1, §3

For `O=c1[nH]c(=O)n([C@H]2C[C@H](O)[C@@H](CO)O2)cc1/C=C/Br` [Brivudin, brivudin], the concentration for half-maximal inhibition (IC50) in the assay on HSV-1 TK^− B2006 is more than 0.16 µg/mL; in the assay on 1C3 syn 21-1, 0.04 µg/mL (≈ 0.12 µM); with 1C3 syn 20-3, 0.06 µg/mL (≈ 0.18 µM); in the assay on 1C3 syn 21-2, 0.06 µg/mL (≈ 0.18 µM); in the assay with 1C3 syn 20-1 it was 0.08 µg/mL (≈ 0.24 µM); with 1C3 syn 17-1, 0.08 µg/mL (≈ 0.24 µM). Moreover, the IC50 in the assay on 1C3 syn 17-3 is 0.08 µg/mL (≈ 0.24 µM); in the assay on 1C3 syn 17-2 it was 0.13 µg/mL (≈ 0.39 µM); in the assay on 1C3 syn 20-2, 0.05 µg/mL (≈ 0.15 µM); in the assay on 1C3 syn 21-3, 0.06 µg/mL (≈ 0.18 µM); with 1C3-syn-14-1, 0.02 µg/mL (≈ 0.06 µM); in the assay with HSV-1 (F), 0.01 µg/mL (≈ 0.03 µM). For the same molecule, the “Relative resistance (RR)” value in the assay on HSV-1 TK^− B2006 is given as 16.0; with 1C3 syn 21-1, 4.0; in the assay on 1C3 syn 20-3, 6.0; in the assay on 1C3 syn 21-2 it was 6.0; in the assay on 1C3 syn 20-1, 8.0; in the assay with 1C3 syn 17-1, 8.0. Also, the “Relative resistance (RR)” value in the assay on 1C3 syn 17-3 was found to be 8.0; in the assay on 1C3 syn 17-2, 13.0; with 1C3 syn 20-2 it was 5.6; in the assay with 1C3 syn 21-3 it was 6.0; with 1C3-syn-14-1, 2.0. The “susceptibility of variant to drug (in words)” value in the assay with 1C3-syn-14-1 was “rare resistance”.

`Nc1nc2c(ncn2COCCO)c(=O)[nH]1` [Aciclovir, aciclovir]: the IC50 in the assay on HSV-1 TK^− B2006 is more than 0.5 µg/mL; with 1C3 syn 21-1, 0.2 µg/mL (≈ 0.888 µM); in the assay with 1C3 syn 20-3, 0.2 µg/mL (≈ 0.888 µM); in the assay on 1C3 syn 21-2, 0.4 µg/mL (≈ 1.78 µM); in the assay with 1C3 syn 20-1, 0.4 µg/mL (≈ 1.78 µM); with 1C3 syn 17-1, 0.28 µg/mL (≈ 1.24 µM). Besides, the IC50 was 0.2 µg/mL (≈ 0.888 µM) in the assay on 1C3 syn 17-3; 0.2 µg/mL (≈ 0.888 µM) with 1C3 syn 17-2; 0.2 µg/mL (≈ 0.888 µM) in the assay with 1C3 syn 20-2; 0.2 µg/mL (≈ 0.888 µM) in the assay on 1C3 syn 21-3; 0.1 µg/mL (≈ 0.444 µM) with 1C3-syn-14-1; 0.05 µg/mL (≈ 0.222 µM) in the assay with HSV-1 (F). Moreover, the “Relative resistance (RR)” value with HSV-1 TK^− B2006 was determined as 10.0; in the assay on 1C3 syn 21-1, 4.0; in the assay with 1C3 syn 20-3, 4.0; in the assay with 1C3 syn 21-2, 8.0; in the assay with 1C3 syn 20-1 it was 8.0; in the assay with 1C3 syn 17-1 it was 5.6. The “Relative resistance (RR)” value is on record as 4.0 in the assay on 1C3 syn 17-3; 4.0 in the assay on 1C3 syn 17-2; 4.0 in the assay on 1C3 syn 20-2; 4.0 in the assay on 1C3 syn 21-3; 2.0 in the assay on 1C3-syn-14-1. Besides, the “susceptibility of variant to drug (in words)” value in the assay on 1C3-syn-14-1 was “rare resistance”.

In the case of `O=C(O)P(=O)(O)O` [Foscarnet, foscarnet], the IC50 in the assay with HSV-1 TK^− B2006 was found to be 35.1 µg/mL (≈ 279 µM); with 1C3 syn 21-1 it was 8.82 µg/mL (≈ 70 µM); in the assay on 1C3 syn 20-3 it was 17.6 µg/mL (≈ 140 µM); in the assay with 1C3 syn 21-2, 17.6 µg/mL (≈ 140 µM); with 1C3 syn 20-1 it was 12.5 µg/mL (≈ 99.2 µM); in the assay with 1C3 syn 17-1, 17.6 µg/mL (≈ 140 µM). Besides, the IC50 with 1C3 syn 17-3 came out at 17.6 µg/mL (≈ 140 µM); in the assay on 1C3 syn 17-2, 12.5 µg/mL (≈ 99.2 µM); in the assay with 1C3 syn 20-2 it was 12.5 µg/mL (≈ 99.2 µM); in the assay on 1C3 syn 21-3, 12.5 µg/mL (≈ 99.2 µM); in the assay with 1C3-syn-14-1, 3.12 µg/mL (≈ 24.8 µM); in the assay with HSV-1 (F), 6.12 µg/mL (≈ 48.6 µM). Moreover, the “Relative resistance (RR)” value amounted to 5.0 with HSV-1 TK^− B2006; 1.4 with 1C3 syn 21-1; 2.9 with 1C3 syn 20-3; 2.9 with 1C3 syn 21-2; 2.0 in the assay on 1C3 syn 20-1; 2.9 in the assay with 1C3 syn 17-1. Besides, the “Relative resistance (RR)” value in the assay on 1C3 syn 17-3 is on record as 2.9; in the assay with 1C3 syn 17-2 it was 2.0; in the assay with 1C3 syn 20-2, 2.0; with 1C3 syn 21-3, 2.0; with 1C3-syn-14-1, less than 1.0.
